Laboratory results: US6413764B1, “Human metabotropic glutamate receptors, nucleic acids encoding same and uses thereof” (Merck & Co., Inc., priority 1993, dated 2002)
Read-outs that look alike come from different tables or passages of the source.

What was measured:
human mGluR5a receptor [1] = target: T1, human mGluR5a receptor (Homo sapiens, UniProt P41594); assay: Automated fluorescence assay (fluo-3) in transiently transfected HEK 293 cells; type: cell-based; design: expressed in transfected cells; host or cells: HEK 293 cells, transient CaPO4 transfection
Procedure: HEK 293 cells were transiently transfected with DNA encoding mGluR5a (constructs mGluR5a2 and mGluR5a3 and construct MMTV-hmGluR5a) receptors. Approximately 2×10^6 HEK cells were transiently transfected with 5-18 μg (or 0.18 μg in some transfections, see Example 3.C.2.) of the indicated plasmid according to standard CaPO4 transfection procedures [see Wigler et al. (1979) Proc. Natl. Acad. Sci. USA 76:1373-1376]. In addition, 0.5-2 μg (or 0.18 μg in some transfections, see Example 3.C.2) of plasmid pCMVβgal (Clontech Laboratories, Palo Alto, Calif.), which contains the Escherichia coli β-galactosidase gene fused to the CMV promoter, were co-transfected as a reporter gene for monitoring the efficiency of transfection. The transfectants were analyzed for β-galactosidase expression by direct staining of the product of a reaction involving β-galactosidase and the X-gal substrate [Jones (1986) EMBO 5:3133-3142]. Transfectants can also be analyzed for β-galactosidase expression by measurement of β-galactosidase activity [Miller (1972) in Experiments in Molecular Genetics, pp.352-355, Cold Spring Harbor Press].
HEK 293 cells that were transiently transfected with 5 μg of MMTV-hmGluR5A were co-transfected with 5 μg of pRShGR (ATCC accession no. 67200) which contains DNA encoding a glucocorticoid receptor operatively linked to the Rous Sarcoma virus (RSV) LTR promoter. Co-expression of glucocorticoid receptors in these cells should insure that induction of expression of the MMTV promoter-mGluR5a DNA occurs upon addition of glucocorticoid (e.g., dexamethasone) to the cells.
Untransfected HEK 293 cells (or HEK 293 cells transiently transfected with pCMV-T7-3) and HEK 293 cells that had been transfected with mGluR5a-encoding DNA were plated in the wells of a 96-well microtiter dish (Nunc Catalog No. 1-6708, distributed by Alameda Industries, Escondido, Calif.) that had been precoated with poly-L-lysine at a density of 2×10^5 cells/well and loaded with fluo-3 by incubation for 2 hours at 20° C. in a medium containing 20 μM fluo-3, 0.2% Pluronic F-127 in HBS (125 mM NaCl, 5 mM KCl, 1.8 mM CaCl2, 0.62 MM MgCl2, 20 mM glucose, 20 mM HEPES, pH 7.4). The cells were then washed with assay buffer (i.e. HBS). The microtiter dish was then placed into a fluorescence plate reader (e.g., Fluoroskan II, Lab Products International, Ltd., Raleigh, N.C.), and the basal fluorescence of each well was measured and recorded before addition of metabotropic receptor-modulating compounds such as quisqualate, glutamate, trans-ACPD (1-amino-cyclopentane-1,3-dicarboxylic acid), 1S,3R-ACPD, AP3 (2-amino-3-phosphonopropionate) AP5 (2-amino-5-phosphonopentanoate), and CNQX (6-cyano-7-nitroquinoxaline-2,3-dione) to the wells. The fluorescence of the wells was monitored repeatedly (75 readings at 0.63-sec intervals) following addition of agonist.

[2] = test system: untransfected HEK 293 cells; assay: Fluorescence imaging assay (fura-2), untransfected control cells; type: cell-based, human; conditions: 100 μM, on average
Procedure: (§1) HEK 293 cells that had been transiently transfected with mGluR5a3 and untransfected HEK 293 cells (control) were analyzed by digital video imaging in order to visualize metabotropic receptor-mediated changes in intracellular Ca^++ concentration. Transfectants (4×10^5 cells per 35-mm culture dish with glass-insert bottom) were loaded with fura-2 by exposing the cells to 1 μM fura-2 (acetoxymethyl ester) for 25 min at room temperature in the dark. The cells were then washed three times with DMEM and four times with Ringer's (160 mM NaCl, 5 mM KCl, 2 mM CaCl2, 1 mM MgCl2, 11 mM glucose, 5 mM HEPES, pH 7.3) solution.
(§2) The transfectants and untransfected cells were then placed on the stage of an Axiovert 100 TV inverted microscope (Zeiss, Oberkochren, Germany) equipped with a 150 W xenon lamp as the UV light source. […]
(§3) The uncalibrated fura-2 ratios were used to generate pseudocolor images with purple corresponding to resting intracellular Ca^++ concentration (˜100 nM) and red to high intracellular Ca^++ concentration (˜1 μM). For quantitative analysis, the average ratio value in a 12-by-12 pixel region over each cell was calculated by the software for each ratio image in an experiment and imported into a spreadsheet for further analysis and graphing.

human mGluR5a receptor [3] = target: T1, human mGluR5a receptor; assay: Fluorescence imaging assay (fura-2) in HEK 293 cells transiently transfected with mGluR5a3; type: cell-based; design: expressed in transfected cells; host or cells: HEK 293 cells, transient CaPO4 transfection; conditions: 100 μM; HEK 293 transiently transfected with mGluR5a3
Procedure: as §1, §2, §3

[4] = HEK 293 transiently transfected with mGluR5a3 or MMTV-hmGluR5a, fluo-3
[5] = cells transfected with mGluR5a3, varying amounts of compound

T1 sequence (P41594 21-1180 isoform P41594-2 limits assumed): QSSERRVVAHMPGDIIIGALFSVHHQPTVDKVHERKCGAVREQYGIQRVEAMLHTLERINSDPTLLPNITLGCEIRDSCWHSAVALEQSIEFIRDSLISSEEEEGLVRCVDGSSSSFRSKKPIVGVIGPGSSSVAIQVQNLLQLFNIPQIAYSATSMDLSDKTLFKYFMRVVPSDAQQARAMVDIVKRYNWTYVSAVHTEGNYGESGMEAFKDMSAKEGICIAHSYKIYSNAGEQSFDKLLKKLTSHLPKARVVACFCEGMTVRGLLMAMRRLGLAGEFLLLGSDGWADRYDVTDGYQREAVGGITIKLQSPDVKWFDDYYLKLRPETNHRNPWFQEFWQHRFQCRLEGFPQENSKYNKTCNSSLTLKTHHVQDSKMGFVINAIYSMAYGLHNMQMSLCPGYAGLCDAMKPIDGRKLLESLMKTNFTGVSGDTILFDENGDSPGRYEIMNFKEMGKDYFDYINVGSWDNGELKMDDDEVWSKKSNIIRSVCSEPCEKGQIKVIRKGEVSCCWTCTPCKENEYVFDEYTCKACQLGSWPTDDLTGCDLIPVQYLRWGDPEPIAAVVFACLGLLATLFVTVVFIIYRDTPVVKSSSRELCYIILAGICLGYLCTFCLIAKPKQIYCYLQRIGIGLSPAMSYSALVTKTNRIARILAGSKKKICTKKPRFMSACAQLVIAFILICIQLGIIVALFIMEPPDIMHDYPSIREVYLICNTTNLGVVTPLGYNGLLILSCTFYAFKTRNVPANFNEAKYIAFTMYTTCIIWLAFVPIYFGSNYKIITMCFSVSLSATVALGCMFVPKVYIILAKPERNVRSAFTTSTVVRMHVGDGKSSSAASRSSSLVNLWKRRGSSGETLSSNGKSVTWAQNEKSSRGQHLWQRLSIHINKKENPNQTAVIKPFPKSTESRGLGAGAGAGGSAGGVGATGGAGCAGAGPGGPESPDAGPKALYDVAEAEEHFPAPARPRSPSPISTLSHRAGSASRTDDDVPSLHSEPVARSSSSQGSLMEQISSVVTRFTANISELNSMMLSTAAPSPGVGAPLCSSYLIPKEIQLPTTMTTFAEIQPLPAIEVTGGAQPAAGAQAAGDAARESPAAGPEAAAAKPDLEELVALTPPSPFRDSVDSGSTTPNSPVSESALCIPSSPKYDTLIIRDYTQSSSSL

Row | SMILES | fluorescence change in response to application of compound (human mGluR5a receptor [1]; [4]) | dose-response of peak fluorescence (human mGluR5a receptor [1]; [5]) | intracellular Ca++ concentration change [2] | dose-response of peak fluorescence (human mGluR5a receptor [1]) | fluorescence change in response to application of compound (human mGluR5a receptor [1]) | fluorescence change in response to compound (human mGluR5a receptor [1]) | transfected cells whose intracellular Ca++ concentration increased (human mGluR5a receptor [3]) [%]
1 | N[C@@H](CCC(=O)O)C(=O)O [glutamate] | increased | magnitude of the peak fluorescence increased with increasing concentration |  |  |  |  | 
2 | N[C@@H](Cn1oc(=O)[nH]c1=O)C(=O)O [quisqualate] |  |  | did not change | magnitude of the peak fluorescence increased with increasing concentration | increased | increased | 26.7±22.3
3 | NC1(C(=O)O)CCC(C(=O)O)C1 (stereo not drawn) [1S,3R-ACPD, 1-amino-cyclopentyl-1,3-dicarboxylic acid] | increased | magnitude of the peak fluorescence increased with increasing concentration |  |  |  |  | 
